Patent publication US7709481B2, “Phenyl-1,2,4-oxadiazolone derivatives, processes for their preparation and methods for their use as pharmaceuticals” (Sanofi-Aventis, priority 2005, dated 2010)
Read-outs that look alike come from different tables or passages of the source.

Key:
[1] = target: T1, human PPARalpha (Homo sapiens, UniProt Q07869); test: Cellular PPARalpha assay (HEK PPARalpha reporter cell line, luciferase); format: cell-based; conditions: 24 h incubation
T1 construct: human PPARalpha receptor (amino acids S167-Y468); expressed in transfected cells; plasmid pcDNA3
T1 sequence (Q07869 167-468): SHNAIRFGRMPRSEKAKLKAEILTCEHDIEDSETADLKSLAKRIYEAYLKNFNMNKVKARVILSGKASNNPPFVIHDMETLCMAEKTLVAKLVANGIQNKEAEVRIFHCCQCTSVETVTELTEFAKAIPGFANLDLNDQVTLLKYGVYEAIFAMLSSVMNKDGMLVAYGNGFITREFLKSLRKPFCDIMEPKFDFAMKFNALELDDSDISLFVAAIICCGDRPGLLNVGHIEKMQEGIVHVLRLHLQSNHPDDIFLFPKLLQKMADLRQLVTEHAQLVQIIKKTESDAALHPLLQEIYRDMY
Protocol: The activity of the compounds was tested as follows. The potency of substances which bind to human PPARalpha and activate it in an agonistic manner is analyzed using a stably transfected HEK cell line (HEK=human embryo kidney) which is referred to here as PPARalpha reporter cell line. It contains two genetic elements, a luciferase reporter element (pdeltaM-GAL4-Luc-Zeo) and a PPARalpha fusion protein (GR-GAL4-humanPPARalpha-LBD) which mediates expression of the luciferase reporter element depending on a PPARalpha ligand. The stably and constitutively expressed fusion protein GR-GAL4-humanPPARalpha-LBD binds in the cell nucleus of the PPARalpha reporter cell line via the GAL4 protein portion to the GAL4 DNA binding motifs 5′-upstream of the luciferase reporter element which is stably integrated in the genome of the cell line. There is only weak expression of the luciferase reporter gene in the absence of a PPARalpha ligand if fatty acid-depleted fetal calf serum (cs-FCS) is used in the assay. PPARalpha ligands bind and activate the PPARalpha fusion protein and thereby stimulate the expression of the luciferase reporter gene. The luciferase which is formed can be detected by means of chemiluminescence via an appropriate substrate.
The PPARalpha reporter cell line was prepared in two stages. Firstly, the luciferase reporter element was constructed and stably transfected into HEK cells. For this purpose, five binding sites of the yeast transcription factor GAL4 (Accession # AF264724) were cloned in 5′-upstream of a 68 bp-long minimal MMTV promoter (Accession # V01175). The minimal MMTV promoter section contains a CCAAT box and a TATA element in order to enable efficient transcription by RNA polymerase II. The cloning and sequencing of the GAL4-MMTV construct took place in analogy to the description of Sambrook J. et. al. (Molecular cloning, Cold Spring Harbor Laboratory Press, 1989). Then the complete Photinus pyralis gene (Accession # M15077) was cloned in 3′-downstream of the GAL4-MMTV element. After sequencing, the luciferase reporter element consisting of five GAL4 binding sites, MMTV promoter and luciferase gene was recloned into a plasmid which confers zeocin resistance in order to obtain the plasmid pdeltaM-GAL4-Luc-Zeo. This vector was transfected into HEK cells in accordance with the statements in Ausubel, F. M. et al. (Current protocols in molecular biology, Vol. 1-3, John Wiley & Sons, Inc., 1995).
In a second step, the PPARalpha fusion protein (GR-GAL4-humanPPARalpha-LBD was introduced into the stable cell clone described. For this purpose, initially the cDNA coding for the N-terminal 76 amino acids of the glucocorticoid receptor (Accession # P04150) was linked to the cDNA section coding for amino acids 1-147 of the yeast transcription factor GAL4 (Accession # P04386). The cDNA of the ligand-binding domain of the human PPARalpha receptor (amino acids S167-Y468; Accession # S74349) was cloned in at the 3′-end of this GR-GAL4 construct. The fusion construct prepared in this way (GR-GAL4-humanPPARalpha-LBD) was recloned into the plasmid pcDNA3 (Invitrogen) in order to enable constitutive expression therein by the cytomegalovirus promoter. This plasmid was linearized with a restriction endonuclease and stably transfected into the previously described cell clone containing the luciferase reporter element. The finished PPARalpha reporter cell line which contains a luciferase reporter element and constitutively expresses the PPARalpha fusion protein (GR-GAL4-human PPARalpha-LBD) was isolated by selection with zeocin (0.5 mg/ml) and G418 (0.5 mg/ml).
The activity of PPARalpha agonists is determined in a 3-day assay which is described below: […]

[2] = target: T2, human PPARdelta (Homo sapiens, UniProt Q03181); test: Cellular PPARdelta assay (HEK PPARdelta reporter cell line, luciferase); format: cell-based; conditions: 24 h incubation
T2 construct: human PPARdelta receptor (amino acids S139-Y441); expressed in transfected cells; plasmid pcDNA3
T2 sequence (Q03181 139-441): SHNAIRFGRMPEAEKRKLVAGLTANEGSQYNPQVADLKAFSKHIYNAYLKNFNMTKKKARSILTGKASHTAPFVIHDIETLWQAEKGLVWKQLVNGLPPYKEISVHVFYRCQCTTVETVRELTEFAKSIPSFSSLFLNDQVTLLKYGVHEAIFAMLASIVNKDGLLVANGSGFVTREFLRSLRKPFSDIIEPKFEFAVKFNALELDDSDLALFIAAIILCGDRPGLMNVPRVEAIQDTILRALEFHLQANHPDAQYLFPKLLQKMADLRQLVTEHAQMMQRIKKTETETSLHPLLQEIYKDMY
Protocol: The raw data from the luminometer are transferred into a Microsoft Excel file. Dose-effect plots and EC50 values of PPAR agonists are calculated using the XL.Fit program as specified by the manufacturer (IDBS). […] Compounds of the invention of the formula I activate the PPARalpha receptor. Determination of EC50 values of PPAR agonists in the cellular PPARdelta assay The potency of substances which bind to human PPARdelta and activate it in an agonistic manner is analyzed using a stably transfected HEK cell line (HEK=human embryo kidney) which is referred to here as PPARdelta reporter cell line. In analogy to the assay described for PPARalpha, the PPARdelta reporter cell line also contains two genetic elements, a luciferase reporter element (pdeltaM-GAL4-Luc-Zeo) and a PPARdelta fusion protein (GR-GAL4-humanPPARdelta-LBD) which mediates expression of the luciferase reporter element depending on a PPARdelta ligand. The stably and constitutively expressed fusion protein GR-GAL4-humanPPARdelta-LBD binds in the cell nucleus of the PPARdelta reporter cell line via the GAL4 protein portion to the GAL4 DNA binding motifs 5′-upstream of the luciferase reporter element which is stably integrated in the genome of the cell line. There is only little expression of the luciferase reporter gene in the absence of a PPARdelta ligand if fatty acid-depleted fetal calf serum (cs-FCS) is used in the assay. PPARdelta ligands bind and activate the PPARdelta fusion protein and thereby stimulate expression of the luciferase reporter gene. The luciferase which is formed can be detected by means of chemiluminescence via an appropriate substrate.
The production of the stable PPARdelta reporter cell line is based on a stable HEK-cell clone which was stably transfected with a luciferase reporter element. This step was already described above in the section “construction of the PPARalpha reporter cell line”. In a second step, the PPARdelta fusion protein (GR-GAL4-humanPPARdelta-LBD was stably introduced into this cell clone. For this purpose, the cDNA coding for the N-terminal 76 amino acids of the glucocorticoid receptor (Accession # P04150) was linked to the cDNA section coding for amino acids 1-147 of the yeast transcription factor GAL4 (Accession # P04386). The cDNA of the ligand-binding domain of the human PPARdelta receptor (amino acids S139-Y441; Accession # L07592) was cloned in at the 3′-end of this GR-GAL4 construct. The fusion construct prepared in this way (GR-GAL4-humanPPARdelta-LBD) was recloned into the plasmid pcDNA3 (Invitrogen) in order to enable constitutive expression by the cytomegalovirus promoter. This plasmid was linearized with a restriction endonuclease and stably transfected into the previously described cell clone containing the luciferase reporter element. The resulting PPARdelta reporter cell line which contains a luciferase reporter element and constitutively expresses the PPARdelta fusion protein (GR-GAL4-human PPARdelta-LBD) was isolated by selection with zeocin (0.5 mg/ml) and G418 (0.5 mg/ml).
The activity of PPARdelta agonists is determined in a 3-day assay in exact analogy to the procedure already described for the PPARalpha reporter cell line except that the PPARdelta reporter cell line and a specific PPARdelta agonist was used as a standard to control test efficacy. PPARdelta EC50 values in the range from 0.3 nM to >10 μM were measured for the PPAR agonists of Examples 1 to 69 described in this application. Compounds of the invention of the formula I activate the PPARdelta receptor.

[3] = target: T3, PPARdelta (Mus musculus, UniProt P35396); conditions: diabetic animal model; cited from earlier work
T3 sequence (P35396 1-440): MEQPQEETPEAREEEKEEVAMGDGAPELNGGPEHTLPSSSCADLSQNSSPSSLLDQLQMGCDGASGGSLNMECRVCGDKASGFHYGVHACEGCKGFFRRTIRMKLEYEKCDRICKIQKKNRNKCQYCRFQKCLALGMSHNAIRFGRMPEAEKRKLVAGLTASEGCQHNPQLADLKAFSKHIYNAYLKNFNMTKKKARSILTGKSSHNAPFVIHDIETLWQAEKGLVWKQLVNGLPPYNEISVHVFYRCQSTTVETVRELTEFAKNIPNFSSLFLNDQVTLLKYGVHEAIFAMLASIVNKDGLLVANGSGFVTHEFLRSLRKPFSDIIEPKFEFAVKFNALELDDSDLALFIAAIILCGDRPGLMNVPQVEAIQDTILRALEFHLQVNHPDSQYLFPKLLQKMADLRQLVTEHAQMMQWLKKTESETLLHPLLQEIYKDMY

[4] = system: PPARdelta; conditions: obese, insulin resistant rhesus monkeys; cited from earlier work
[5] = system: PPARdelta/PPARalpha; conditions: rhesus and cynomolgus monkeys; cited from earlier work
[6] = system: PPARdelta/PPARalpha; conditions: two weeks clinical trials in healthy volunteers; cited from earlier work

| SMILES | EC50 [1] [µM] | EC50 [2] [nM] | further results |
| --- | --- | --- | --- |
| O=c1[nH]c(-c2cc(F)c(OCc3sc([C@H]4CC[C@H](C(F)(F)F)CC4)nc3CN3CCC(C(F)(F)F)CC3)cc2OC(F)F)no1 [Example 62, 3-{2-Difluoromethoxy-5-fluoro-4-[2-(trans-1,4-trifluoromethyl-cyclohexyl)-4-(4-trifluoromethyl-piperidin-1-ylmethyl)-thiazol-5-ylmethoxy]-phenyl}-4H-1,2,4-oxadiazol-5-one] | > 33 | 52 | – |
| CCC(Oc1ccc(-c2noc(=O)[nH]2)c(F)c1)c1sc([C@H]2CC[C@H](C(F)(F)F)CC2)nc1C (stereo partly drawn) [Example 66, 3-(2-Fluoro-4-{1-[4-methyl-2-(trans-1,4-trifluoromethyl-cyclohexyl)-thiazol-5-yl]-propoxy}-phenyl)-4H-1,2,4-oxadiazol-5-one] | 0.304 | 11 | – |
| CCC(Oc1ccc(-c2noc(=O)[nH]2)c(F)c1)c1sc([C@H]2CC[C@H](C(F)(F)F)CC2)nc1CN1CCC(C(F)(F)F)CC1 (stereo partly drawn) [Example 68, 3-(2-Fluoro-4-{1-[2-(trans-1,4-trifluoromethyl-cyclohexyl)-4-(4-trifluoromethyl-piperidin-1-ylmethyl)-thiazol-5-yl]-propoxy}-phenyl)-4H-1,2,4-oxadiazol-5-one] | > 33 | 130 | – |
| CCCc1c(OCCCOc2ccc(OCC(=O)O)cc2)ccc(C(C)=O)c1O [Example L-165041] | – | – | plasma cholesterol [3]: raises plasma cholesterol |
| Cc1cc(SCc2sc(-c3ccc(C(F)(F)F)cc3)nc2C)ccc1OCC(=O)O [GW501516] | – | – | HDL-cholesterol [4]: raises HDL-cholesterol; plasma LDL-cholesterol, triglycerides and insulin levels [4]: decreases plasma LDL-cholesterol, triglycerides and insulin levels |
| CCCc1c(OCCCSc2nnc(SCC(=O)O)s2)ccc(C(C)=O)c1O [YM-16638] | – | – | plasma lipids [5]: significantly lowers plasma lipids; plasma lipids [6]: acts in a similar manner |
